Five compounds from patent publication US20260209223A1, “FGFR3 INHIBITOR COMPOUNDS” (TYRA BIOSCIENCES, INC., priority 2022, published 2026) can be followed below.

One assay concerns the target T1, Ba/F3 FGFR3-BAIAP2L1 (Homo sapiens, UniProt P22607).
T1 construct: BAIAP2L1 (fusion partner, Q9UHR4 if human); host or cells: Ba/F3; the other entry of the earlier key: BAIAP2L1 (Q9UHR4, BAR/IMD domain-containing adapter protein 2-like 1)
The experiment in a line: Ba/F3 cell viability assay (CellTiter-Glo 2.0). It counts as cell-based. To be noted: Ba/F3 cell data, FGFR3-BAIAP2L1 fusion, 48 hours.

In another assay the target is T2, Ba/F3 ETV5-FGFR4 (Homo sapiens, UniProt P22455).
T2 construct: host or cells: Ba/F3; the other entry of the earlier key: ETV5 (P41161, ETS translocation variant 5)
Put plainly: Ba/F3 cell viability assay (CellTiter-Glo 2.0). The assay is classed as cell-based. To be noted: Ba/F3 cell data, ETV5-FGFR4 fusion, 48 hours. An excerpt:
Experimental Purpose: Recombinant kinase fusions are transduced into parental Ba/F3, which becomes dependent upon this constitutive kinase activity for IL3-independent survival. Inhibition of kinase activity leads to cell death, which is monitored using CellTiter-Glo® 2.0 (Promega) which measures intracellular ATP concentration that in turn serves as a marker for viability. BCR-FGFR1 Ba/F3, BCR-FGFR2 and FGFR3-BAIAP2L1 Ba/F3 were obtained from Advanced Cellular Dynamics (Seattle, WA). ETV6-FGFR4 was obtained from Kyinno (Waltham, MA).
Cell Viability Assay Procedure: Cell Titer-Glo® 2.0 Luminescent cell viability assay reagent was purchased from Promega (Madison, WI). Ba/F3 cell lines were cultured in RPMI1640 media supplemented with 10% fetal bovine serum. Cultures were maintained at 37° C. in a humidified atmosphere of 5% CO2 and 95% air.
Cells were plated in 96-well clear bottom/white plates (Corning #3903) at 10,000 cells/well in 100 μl of media, incubated overnight. The next day, test compound DMSO stock solutions were made at 10 mM and 2 μM final concentration. Compounds were then added to cells in a 9-dose, 10-fold dilution series starting at 30 μM with an HP 300e Digital Dispenser (each dose was applied in triplicate). DMSO was backfilled to each well up to 301 nL total volume of test compound+DMSO, and a total of 301 nL DMSO was added to a control/no test compound well in triplicate. The cells in cell culture plates were incubated with the compounds at 37° C. and 5% CO2 for 48 hours. Then 50 μl of Cell Titer Glo 2.0 reagent was added to each well of the cell culture plates. The contents were covered from light and mixed on an orbital shaker at room temperature for 10 min. Luminescence was recorded by a Synergy H1 Microplate Reader (Biotek, Winooski, VT). Cells were assessed as a percentage of DMSO only treated control cells. Curves were plotted and IC50 values were calculated using the GraphPad Prism 8 program based on a sigmoidal dose-response equation (4 parameter).

In a further assay the target is T3, Ba/F3 BCR-FGFR2 (Homo sapiens, UniProt P21802).
T3 construct: BCR (fusion partner); host or cells: Ba/F3; the other entry of the earlier key: BCR (P11274, Breakpoint cluster region protein)
Put plainly: Ba/F3 cell viability assay (CellTiter-Glo 2.0). The settings on record: Ba/F3 cell data, BCR-FGFR2 fusion, 48 hours. The assay is classed as cell-based.

Another assay concerns the target T4, FGFR1 (Homo sapiens, UniProt P11362).
T4 construct: made in house; host or cells: E. coli (BL21-derived) infected with T7 phage
Put plainly: Kinase binding assay (Kd), kinase-tagged T7 phage, affinity beads, qPCR. The settings on record: in vitro binding assay, 11-point 3-fold dilution series. As for the experimental part: (§1) Kinase-tagged T7 phage strains were prepared in an E. coli host derived from the BL21 strain. E. coli were grown to log-phase and infected with T7 phage and incubated with shaking at 32° C. until lysis. The lysates were centrifuged and filtered to remove cell debris. Streptavidin-coated magnetic beads were treated with biotinylated small molecule ligands for 30 minutes at room temperature to generate affinity resins for kinase assays. The liganded beads were blocked with excess biotin and washed with blocking buffer SeaBlock (Pierce), 1% BSA, 0.05% Tween 20, 1 mM DTT to remove unbound ligand and to reduce non-specific binding. Binding reactions were assembled by combining kinases, liganded affinity beads, and test compounds in 1× binding buffer (20% SeaBlock, 0.17×PBS, 0.05% Tween 20, 6 mM DTT).
(§2) Test compounds were prepared as 111× stocks in 100% DMSO. Kds were determined using an 11-point 3-fold compound dilution series with three DMSO control points. All compounds for Kd measurements are distributed by acoustic transfer (non-contact dispensing) in 100% DMSO. The compounds were then diluted directly into the assays such that the final concentration of DMSO was 0.9%. All reactions performed in polypropylene 384-well plate. Each was a final volume of 0.02 ml. The assay plates were incubated at room temperature with shaking for 1 hour and the affinity beads were washed with wash buffer (1×PBS, 0.05% Tween 20). The beads were then re-suspended in elution buffer (1×PBS, 0.05% Tween 20, 0.5 μM non-biotinylated affinity ligand) and incubated at room temperature with shaking for 30 minutes. The kinase concentration in the eluates was measured by qPCR.
(§3) Binding constants were calculated with a standard dose-response curve using the Hill equation: […]
(§4) The Hill Slope was set to −1. Curves were fitted using a non-linear least square fit with the Levenberg-Marquardt algorithm.

In the next assay the target is T5, FGFR3 (Homo sapiens, UniProt P22607).
T5 construct: made in house; host or cells: E. coli (BL21-derived) infected with T7 phage
Described as above. To be noted: in vitro binding assay, 11-point 3-fold dilution series. On the procedure:
as §1, §2, §3, §4

The target of a further assay is T6, FGFR4 (Homo sapiens, UniProt P22455).
T6 construct: made in house; host or cells: E. coli (BL21-derived) infected with T7 phage
The description is as above. To be noted: in vitro binding assay, 11-point 3-fold dilution series. On the procedure: as §1, §2, §3, §4

In the next assay the target is T7, FGFR2 (Homo sapiens, UniProt P21802).
T7 construct: made in house; host or cells: E. coli (BL21-derived) infected with T7 phage
Described as above. The settings on record: in vitro binding assay, 11-point 3-fold dilution series. As for the experimental part:
as §1, §2, §3, §4

The next assay deals with T8, FGFR3 (V555M) (Homo sapiens, UniProt P22607, V555M).
T8 construct: made in house; host or cells: E. coli (BL21-derived) infected with T7 phage
The description is as above. To be noted: in vitro binding assay, 11-point 3-fold dilution series. As for the experimental part: as §1, §2, §3, §4

Another assay concerns the target T9, Ba/F3 BCR-FGFR1 (Homo sapiens, UniProt P11362).
T9 construct: BCR (fusion partner); host or cells: Ba/F3; the other entry of the earlier key: BCR (P11274, Breakpoint cluster region protein)
Put plainly: Ba/F3 cell viability assay (CellTiter-Glo 2.0). To be noted: Ba/F3 cell data, BCR-FGFR1 fusion, 48 hours. The assay is classed as cell-based.

Each structure is given as a SMILES string.

T3 sequence (P21802 481-770 limits assumed): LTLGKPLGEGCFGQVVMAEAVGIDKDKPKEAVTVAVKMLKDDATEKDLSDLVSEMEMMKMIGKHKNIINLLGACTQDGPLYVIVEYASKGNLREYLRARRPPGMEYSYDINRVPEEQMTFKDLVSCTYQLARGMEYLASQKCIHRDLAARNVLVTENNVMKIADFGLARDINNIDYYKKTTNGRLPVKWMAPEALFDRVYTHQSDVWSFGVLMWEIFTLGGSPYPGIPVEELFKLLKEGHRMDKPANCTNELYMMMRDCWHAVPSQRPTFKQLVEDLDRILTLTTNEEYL
T7 sequence (P21802 22-821): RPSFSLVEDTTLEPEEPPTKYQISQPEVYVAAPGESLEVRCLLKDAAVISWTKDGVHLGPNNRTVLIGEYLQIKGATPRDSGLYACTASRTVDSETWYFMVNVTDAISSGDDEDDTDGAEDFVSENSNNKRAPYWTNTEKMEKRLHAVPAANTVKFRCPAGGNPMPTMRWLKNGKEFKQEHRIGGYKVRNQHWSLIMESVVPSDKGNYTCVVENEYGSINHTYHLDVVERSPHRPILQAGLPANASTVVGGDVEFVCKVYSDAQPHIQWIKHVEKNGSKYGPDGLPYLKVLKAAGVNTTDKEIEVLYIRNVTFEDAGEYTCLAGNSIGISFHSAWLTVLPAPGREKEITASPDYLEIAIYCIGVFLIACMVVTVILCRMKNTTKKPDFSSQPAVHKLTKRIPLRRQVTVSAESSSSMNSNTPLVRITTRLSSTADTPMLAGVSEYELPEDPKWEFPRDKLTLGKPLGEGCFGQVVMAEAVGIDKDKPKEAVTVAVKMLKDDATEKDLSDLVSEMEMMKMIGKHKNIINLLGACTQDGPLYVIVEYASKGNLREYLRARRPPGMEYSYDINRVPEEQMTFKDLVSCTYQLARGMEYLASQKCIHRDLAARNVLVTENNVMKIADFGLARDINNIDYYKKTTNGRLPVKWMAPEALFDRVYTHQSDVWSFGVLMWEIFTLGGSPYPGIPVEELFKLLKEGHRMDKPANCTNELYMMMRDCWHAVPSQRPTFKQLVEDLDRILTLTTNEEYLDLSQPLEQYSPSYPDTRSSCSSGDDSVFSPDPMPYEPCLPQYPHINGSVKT
T1 sequence (P22607 397-758 limits assumed): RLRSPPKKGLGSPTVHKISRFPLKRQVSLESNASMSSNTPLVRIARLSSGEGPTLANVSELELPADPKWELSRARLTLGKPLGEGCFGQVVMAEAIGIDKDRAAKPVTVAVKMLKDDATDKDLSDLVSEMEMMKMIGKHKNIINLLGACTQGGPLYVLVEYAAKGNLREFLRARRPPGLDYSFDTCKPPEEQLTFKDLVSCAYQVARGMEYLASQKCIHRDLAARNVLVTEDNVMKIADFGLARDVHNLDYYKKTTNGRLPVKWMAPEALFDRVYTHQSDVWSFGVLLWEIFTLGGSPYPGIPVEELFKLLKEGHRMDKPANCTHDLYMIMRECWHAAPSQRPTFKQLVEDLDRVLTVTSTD
T8 sequence (P22607 23-806 V555M): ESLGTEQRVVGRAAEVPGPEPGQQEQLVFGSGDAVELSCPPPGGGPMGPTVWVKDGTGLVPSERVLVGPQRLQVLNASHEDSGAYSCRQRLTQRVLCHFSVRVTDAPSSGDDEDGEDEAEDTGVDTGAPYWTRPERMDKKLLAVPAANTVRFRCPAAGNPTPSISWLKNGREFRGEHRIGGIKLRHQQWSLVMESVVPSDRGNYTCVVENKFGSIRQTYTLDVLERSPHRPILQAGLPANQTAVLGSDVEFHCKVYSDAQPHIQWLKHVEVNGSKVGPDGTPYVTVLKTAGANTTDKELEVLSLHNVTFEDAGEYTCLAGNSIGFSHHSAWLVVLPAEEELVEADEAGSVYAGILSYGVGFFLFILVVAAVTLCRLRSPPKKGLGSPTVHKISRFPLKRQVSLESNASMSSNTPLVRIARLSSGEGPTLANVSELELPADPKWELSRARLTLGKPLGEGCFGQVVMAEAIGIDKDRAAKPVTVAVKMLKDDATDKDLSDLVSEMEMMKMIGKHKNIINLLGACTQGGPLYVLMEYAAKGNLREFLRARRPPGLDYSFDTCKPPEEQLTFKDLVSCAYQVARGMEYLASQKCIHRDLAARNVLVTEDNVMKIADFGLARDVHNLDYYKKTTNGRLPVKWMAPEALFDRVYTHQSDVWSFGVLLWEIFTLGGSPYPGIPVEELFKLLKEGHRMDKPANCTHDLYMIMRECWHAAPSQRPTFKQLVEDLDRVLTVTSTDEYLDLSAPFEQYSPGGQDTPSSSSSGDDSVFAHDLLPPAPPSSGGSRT
T6 sequence (P22455 22-802): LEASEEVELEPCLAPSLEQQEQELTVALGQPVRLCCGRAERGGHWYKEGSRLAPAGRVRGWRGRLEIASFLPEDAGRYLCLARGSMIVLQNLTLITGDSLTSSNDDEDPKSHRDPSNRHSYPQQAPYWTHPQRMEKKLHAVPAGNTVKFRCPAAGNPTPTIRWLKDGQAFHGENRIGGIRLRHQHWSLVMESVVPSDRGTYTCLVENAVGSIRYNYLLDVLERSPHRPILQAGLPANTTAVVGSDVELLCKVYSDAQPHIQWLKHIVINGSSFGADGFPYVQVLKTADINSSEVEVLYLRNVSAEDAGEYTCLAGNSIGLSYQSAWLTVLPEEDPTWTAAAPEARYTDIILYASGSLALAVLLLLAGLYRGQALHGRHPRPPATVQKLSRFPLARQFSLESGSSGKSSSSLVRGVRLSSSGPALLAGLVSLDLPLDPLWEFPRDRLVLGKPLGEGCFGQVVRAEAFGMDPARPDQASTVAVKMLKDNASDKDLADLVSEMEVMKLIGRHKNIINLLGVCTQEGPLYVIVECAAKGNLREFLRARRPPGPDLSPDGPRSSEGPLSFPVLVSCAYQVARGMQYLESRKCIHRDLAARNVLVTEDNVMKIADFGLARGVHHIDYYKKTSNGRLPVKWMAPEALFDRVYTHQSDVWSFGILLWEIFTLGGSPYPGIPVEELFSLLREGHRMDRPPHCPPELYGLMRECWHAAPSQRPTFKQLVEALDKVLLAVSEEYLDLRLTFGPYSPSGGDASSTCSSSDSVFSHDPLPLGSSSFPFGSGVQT
T9 sequence (P11362 478-767 limits assumed): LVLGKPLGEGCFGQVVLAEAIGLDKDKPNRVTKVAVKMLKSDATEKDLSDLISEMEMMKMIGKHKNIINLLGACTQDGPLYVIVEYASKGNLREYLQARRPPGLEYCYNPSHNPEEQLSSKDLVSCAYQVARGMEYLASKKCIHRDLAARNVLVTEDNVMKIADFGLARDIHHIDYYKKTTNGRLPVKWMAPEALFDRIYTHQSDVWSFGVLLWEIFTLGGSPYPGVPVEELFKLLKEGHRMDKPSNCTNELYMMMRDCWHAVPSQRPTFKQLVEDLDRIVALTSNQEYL
T5 sequence (P22607 23-806): as the sequence (P22607 23-806 V555M) above, with M533V counted along it
T2 sequence (P22455 467-755 limits assumed): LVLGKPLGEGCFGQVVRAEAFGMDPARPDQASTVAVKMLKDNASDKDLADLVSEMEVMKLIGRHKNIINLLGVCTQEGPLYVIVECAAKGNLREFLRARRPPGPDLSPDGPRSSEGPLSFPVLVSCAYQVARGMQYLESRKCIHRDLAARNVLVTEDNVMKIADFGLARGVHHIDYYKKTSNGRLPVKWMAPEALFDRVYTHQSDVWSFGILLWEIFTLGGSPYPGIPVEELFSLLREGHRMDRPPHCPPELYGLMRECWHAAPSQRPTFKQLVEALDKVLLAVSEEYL
T4 sequence (P11362 22-822): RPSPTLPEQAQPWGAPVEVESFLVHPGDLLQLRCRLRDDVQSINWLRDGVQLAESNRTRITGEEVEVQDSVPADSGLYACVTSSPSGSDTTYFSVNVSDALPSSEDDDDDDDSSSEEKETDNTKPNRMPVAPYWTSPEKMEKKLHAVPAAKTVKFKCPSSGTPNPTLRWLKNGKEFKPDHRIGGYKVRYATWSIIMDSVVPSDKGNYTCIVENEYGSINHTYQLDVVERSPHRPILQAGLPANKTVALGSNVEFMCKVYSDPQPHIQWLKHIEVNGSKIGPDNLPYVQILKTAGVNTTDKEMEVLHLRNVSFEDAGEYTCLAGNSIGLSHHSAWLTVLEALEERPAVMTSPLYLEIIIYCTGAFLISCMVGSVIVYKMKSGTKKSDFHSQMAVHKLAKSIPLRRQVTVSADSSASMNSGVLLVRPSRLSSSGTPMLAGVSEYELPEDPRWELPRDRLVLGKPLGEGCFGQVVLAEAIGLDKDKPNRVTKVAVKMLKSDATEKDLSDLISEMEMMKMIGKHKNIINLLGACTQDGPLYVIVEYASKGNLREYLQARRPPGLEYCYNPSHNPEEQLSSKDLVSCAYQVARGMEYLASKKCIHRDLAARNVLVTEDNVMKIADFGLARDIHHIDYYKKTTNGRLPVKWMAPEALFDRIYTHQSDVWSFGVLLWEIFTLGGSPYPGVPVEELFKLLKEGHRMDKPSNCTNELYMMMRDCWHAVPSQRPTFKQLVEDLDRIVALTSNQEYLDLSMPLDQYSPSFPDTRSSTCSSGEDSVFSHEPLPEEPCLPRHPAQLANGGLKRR

`C=CC(=O)N1CCC2(CC1)CC(n1ncc(-c3cc(OC(CO)c4ccnn4C)c4c(C#N)cnn4c3)c1C)C2` (stereo not drawn) [Example 11, 6-(1-(7-acryloyl-7-azaspiro[3.5]nonan-2-yl)-5-methyl-1H-pyrazol-4-yl)-4-(2-hydroxy-1-(1-methyl-1H-pyrazol-5-yl)ethoxy)pyrazolo[1,5-a]pyridine-3-carbonitrile]: the Kd on Ba/F3 FGFR3-BAIAP2L1 was 250 to 1000 nM; on Ba/F3 ETV5-FGFR4, no less than 1000 nM; on Ba/F3 BCR-FGFR2, no less than 1000 nM; at FGFR1 it was 250 to 1000 nM; at FGFR3, 100 to 250 nM; on FGFR4, 250 to 1000 nM. Further, the Kd on FGFR2 was 100 to 250 nM; at FGFR3 (V555M), 100 to 250 nM; on Ba/F3 BCR-FGFR1, no less than 1000 nM.
As for `C=CC(=O)N1CCC2(CC1)CC(n1nnc(-c3cc(O[C@@H](CO)c4ccc(F)cn4)c4c(C#N)cnn4c3)c1C)C2` [Example 12, (R)-6-(1-(7-acryloyl-7-azaspiro[3.5]nonan-2-yl)-5-methyl-1H-1,2,3-triazol-4-yl)-4-(1-(5-fluoropyridin-2-yl)-2-hydroxyethoxy)pyrazolo[1,5-a]pyridine-3-carbonitrile], the Kd was 250 to 1000 nM on Ba/F3 FGFR3-BAIAP2L1; no less than 1000 nM at Ba/F3 ETV5-FGFR4; no less than 1000 nM on Ba/F3 BCR-FGFR2; 250 to 1000 nM at FGFR1; 100 to 250 nM at FGFR3; no less than 1000 nM on FGFR4. Also, the Kd was 250 to 1000 nM at FGFR2, 250 to 1000 nM on FGFR3 (V555M) and no less than 1000 nM at Ba/F3 BCR-FGFR1.
With `C=CC(=O)N1CCC2(CC1)CC(n1ncc(-c3cc(OC(CO)c4cncc5ccccc45)c4c(C#N)cnn4c3)c1C)C2` (stereo not drawn) [Example 15, 6-(1-(7-acryloyl-7-azaspiro[3.5]nonan-2-yl)-5-methyl-1H-pyrazol-4-yl)-4-(2-hydroxy-1-(isoquinolin-4-yl)ethoxy)pyrazolo[1,5-a]pyridine-3-carbonitrile], the Kd was 0.1 to 100 nM on Ba/F3 FGFR3-BAIAP2L1; 250 to 1000 nM at Ba/F3 ETV5-FGFR4; 100 to 250 nM on Ba/F3 BCR-FGFR2; 0.1 to 100 nM at FGFR1; 0.1 to 100 nM at FGFR3; 0.1 to 100 nM at FGFR4. Moreover, the Kd lay within 0.1 to 100 nM on FGFR2, 0.1 to 100 nM at FGFR3 (V555M) and 100 to 250 nM at Ba/F3 BCR-FGFR1.
For the compound `C=CC(=O)N1CC(OC)(C(=O)N2CCC(n3nnc(-c4cc(O[C@@H](CO)c5ccccn5)c5c(C#N)cnn5c4)c3C)CC2)C1` [Example 21, (R)-6-(1-(1-(1-acryloyl-3-methoxyazetidine-3-carbonyl)piperidin-4-yl)-5-methyl-1H-1,2,3-triazol-4-yl)-4-(2-hydroxy-1-(pyridin-2-yl)ethoxy)pyrazolo[1,5-a]pyridine-3-carbonitrile], the Kd on Ba/F3 FGFR3-BAIAP2L1 was no less than 1000 nM; at Ba/F3 ETV5-FGFR4 it was no less than 1000 nM; at Ba/F3 BCR-FGFR2, no less than 1000 nM; on FGFR1, no less than 1000 nM; at FGFR3, 100 to 250 nM; at FGFR4, no less than 1000 nM. In addition, the Kd on FGFR2 was 250 to 1000 nM; at FGFR3 (V555M) it was 250 to 1000 nM; at Ba/F3 BCR-FGFR1, no less than 1000 nM.
Regarding `COC1(C(=O)N2CCC(n3nnc(-c4cc(OC(CO)c5ccccn5)c5c(C#N)cnn5c4)c3C)CC2)CN(C(=O)/C=C/CN(C)C)C1` (stereo not drawn) [Example 23, (E)-6-(1-(1-(1-(4-(dimethylamino)but-2-enoyl)-3-methoxyazetidine-3-carbonyl)piperidin-4-yl)-5-methyl-1H-1,2,3-triazol-4-yl)-4-(2-hydroxy-1-(pyridin-2-yl)ethoxy)pyrazolo[1,5-a]pyridine-3-carbonitrile], the dissociation constant Kd is 250 to 1000 nM on Ba/F3 FGFR3-BAIAP2L1; no less than 1000 nM on Ba/F3 ETV5-FGFR4; no less than 1000 nM on Ba/F3 BCR-FGFR2; 0.1 to 100 nM on FGFR1; 0.1 to 100 nM at FGFR3; 0.1 to 100 nM on FGFR4. The Kd at FGFR2 was 0.1 to 100 nM; on FGFR3 (V555M) it was 0.1 to 100 nM; on Ba/F3 BCR-FGFR1 it was no less than 1000 nM.
